Reference: patent US10407445B2, “Hepatitis C virus inhibitors” (ENANTA PHARMACEUTICALS, INC., priority 2013, dated 2019)
pEC50: −log10 of the molar value.

Columns and labels:
Format in all cases: cell-based
[1] = system: HCV GT 1a replicon; assay: HCV replicon assay, stable GT 1a replicon (Renilla luciferase); settings: Hepatitis C virus, GT1A; HCV GT 1a replicon, 72 h; read-out: EC50 1a
Outline: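 Huh-7.5 cells stably carrying a GT1a replicon (H77-based) with Renilla luciferase-Neo reporter, 4000 cells/well, sixteen-point half-log compound series, phenol red-free DMEM without G418. Luciferase read after 72 h relative to DMSO-treated cells gives EC50.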

[2] = system: GT1a replicon encoding NS5A mutation Q30R; assay: Transient replication assay, GT1a replicon with NS5A mutation Q30R; settings: Hepatitis C virus, read-out: EC50 1a Q30R
[3] = system: GT1a replicon encoding NS5A mutation Y93H; assay: Transient replication assay, GT1a replicon with NS5A mutation Y93H; settings: Hepatitis C virus, read-out: EC50 1a Y93H
[4] = system: GT1a replicon encoding NS5A mutation L31V; assay: Transient replication assay, GT1a replicon with NS5A mutation L31V; settings: Hepatitis C virus, read-out: EC50 1a L31V

Structure (SMILES)	pEC50 [1]	pEC50 [2]	pEC50 [3]	pEC50 [4]
COC(=O)N[C@H](C(=O)N1C[C@]2(CCCOC2)C[C@H]1c1ncc(-c2ccc(-c3ccc4c(ccc5nc([C@@H]6C[C@@H]7COC[C@@H]7N6C(=O)[C@@H](NC(=O)OC)C(C)C)[nH]c54)c3)cc2)[nH]1)C(C)C [Compound 35]	10.55	10.15	7.59	9.30
COC(=O)N[C@H](C(=O)N1CC2(CC2)C[C@H]1c1ncc(-c2ccc(-c3ccc4c(ccc5nc([C@@H]6C[C@@]7(CCCOC7)CN6C(=O)[C@@H](NC(=O)OC)C(C)C)[nH]c54)c3)cc2)[nH]1)C(C)C [Compound 8]	11.00	10.00	8.40	9.70
COC(=O)N[C@H](C(=O)N1C[C@]2(CCCO2)C[C@H]1c1ncc(-c2ccc(-c3ccc4c(ccc5nc([C@@H]6CCCN6C(=O)[C@@H](NC(=O)OC)C(C)C)[nH]c54)c3)cc2)[nH]1)C(C)C [Example 81]	10.82	10.30	7.82	9.40
COC(=O)N[C@H](C(=O)N1CCC[C@H]1c1nc2c([nH]1)-c1ccc(-c3ccc4c(ccc5nc([C@@H]6C[C@@]7(CCCOC7)CN6C(=O)[C@@H](NC(=O)OC)C(C)C)[nH]c54)c3)cc1OC2)C(C)C [Compound 25]	10.57	9.70	8.15	9.22
COC(=O)N[C@H](C(=O)N1C[C@]2(CCCOC2)C[C@H]1c1ncc(-c2ccc(-c3ccc4c(ccc5nc([C@@H]6C[C@@H]7CCC[C@@H]7N6C(=O)[C@@H](NC(=O)OC)C(C)C)[nH]c54)c3)cc2)[nH]1)C(C)C [Compound 16]	11.05	10.70	8.10	9.52
COC(=O)N[C@H](C(=O)N1C[C@]2(CCCOC2)C[C@H]1c1ncc(-c2ccc(-c3ccc4c(ccc5nc([C@@H]6C[C@H]7C[C@H]7N6C(=O)[C@@H](NC(=O)OC)C(C)C)[nH]c54)c3)cc2)[nH]1)C(C)C [Compound 18]	11.15	10.30	8.22	9.52
COC(=O)N[C@H](C(=O)N1C[C@@]2(CCOC2)C[C@H]1c1ncc(-c2ccc(-c3ccc4c(ccc5nc([C@@H]6CCCN6C(=O)[C@@H](NC(=O)OC)C(C)C)[nH]c54)c3)cc2)[nH]1)C(C)C [Compound 50]	10.85	9.40	8.15	9.00
COC(=O)N[C@H](C(=O)N1C[C@]2(CCCOC2)C[C@H]1c1ncc(-c2ccc(-c3ccc4c(ccc5nc([C@@H]6C[C@@]7(CCCOC7)CN6C(=O)[C@@H](NC(=O)OC)C(C)C)[nH]c54)c3)cc2)[nH]1)C(C)C [Compound 11]	10.64	10.30	8.70	10.10
COC(=O)N[C@H](C(=O)N1C[C@]2(CCCOC2)C[C@H]1c1ncc(-c2ccc(-c3ccc4c(c3)OCc3nc([C@@H]5C[C@@H]6CCCC[C@@H]6N5C(=O)[C@@H](NC(=O)OC)C(C)C)[nH]c3-4)cc2)[nH]1)C(C)C [Compound 42]	11.22	10.30	7.80	9.70
COC(=O)N[C@H](C(=O)N1C[C@]2(CCCOC2)C[C@H]1c1ncc(-c2ccc(-c3ccc4c(c3)CCCc3nc([C@@H]5C[C@@H]6CCCC[C@@H]6N5C(=O)[C@@H](NC(=O)OC)C(C)C)[nH]c3-4)cc2)[nH]1)C(C)C [Compound 40]	10.96	10.30	8.10	9.00
COC(=O)N[C@H](C(=O)N1C[C@]2(CCCCO2)C[C@H]1c1nc(-c2ccc(-c3ccc4c(ccc5nc([C@@H]6CCCN6C(=O)[C@@H](NC(=O)OC)C(C)C)[nH]c54)c3)cc2)c[nH]1)C(C)C [Example 2]	10.92	10.52	8.05	9.52
COC(=O)N[C@H](C(=O)N1C[C@@]2(CCCO2)C[C@H]1c1ncc(-c2ccc(-c3ccc4c(ccc5nc([C@@H]6CCCN6C(=O)[C@@H](NC(=O)OC)C(C)C)[nH]c54)c3)cc2)[nH]1)C(C)C [Example 82]	10.23	8.52	8.30	7.34
COC(=O)N[C@H](C(=O)N1C[C@]2(CCCOC2)C[C@H]1c1nc2ccc3cc(-c4ccc(-c5cnc([C@@H]6C[C@@H]7COC[C@@H]7N6C(=O)[C@@H](NC(=O)OC)C(C)C)[nH]5)cc4)ccc3c2[nH]1)C(C)C [Compound 34]	10.62	10.70	8.40	10.10
COC(=O)N[C@H](C(=O)N1CCC[C@H]1c1ncc(-c2ccc(-c3ccc4c(ccc5nc([C@@H]6C[C@@]7(CCCOC7)CN6C(=O)[C@@H](NC(=O)OC)C(C)C)[nH]c54)c3)cc2)[nH]1)C(C)C [Compound 44]	11.00	10.00	8.22	9.22
COC(=O)N[C@H](C(=O)N1CC2(CCOCC2)C[C@H]1c1ncc(-c2ccc(-c3ccc4c(ccc5nc([C@@H]6CCCN6C(=O)[C@@H](NC(=O)OC)C(C)C)[nH]c54)c3)cc2)[nH]1)C(C)C [Example 83]	10.54	9.00	7.59	8.22
COC(=O)N[C@H](C(=O)N1C[C@]2(CCCOC2)C[C@H]1c1ncc(-c2ccc(-c3ccc4c(ccc5nc([C@@H]6CCCN6C(=O)[C@@H](NC(=O)OC)C(C)C)[nH]c54)c3)cc2)[nH]1)C(C)C [Compound 47]	10.82	10.00	8.10	9.00
COC(=O)N[C@H](C(=O)N1CCC[C@H]1c1ncc(-c2ccc(-c3ccc4c(ccc5nc([C@@H]6CCCN6C(=O)[C@@H](NC(=O)OC)C(C)C)[nH]c54)c3)cc2)[nH]1)C(C)C [Example 102]	10.82	9.00	7.66	8.10
COC(=O)N[C@H](C(=O)N1C[C@]2(CCCOC2)C[C@H]1c1ncc(-c2ccc(-c3ccc(-c4cnc([C@@H]5C[C@@H]6CCC[C@@H]6N5C(=O)[C@@H](NC(=O)OC)C(C)C)[nH]4)cc3)cc2)[nH]1)C(C)C [Compound 37]	11.10	10.70	7.82	9.30
COC(=O)N[C@H](C(=O)N1C[C@]2(CCCOC2)C[C@H]1c1nc2ccc3cc(-c4ccc(-c5cnc([C@@H]6C[C@@H]7CCCC[C@@H]7N6C(=O)[C@@H](NC(=O)OC)C(C)C)[nH]5)cc4)ccc3c2[nH]1)C(C)C [Compound 24]	11.15	10.70	8.52	10.15
COC(=O)N[C@H](C(=O)N1C[C@]2(CCCOC2)C[C@H]1c1nc2ccc3cc(-c4ccc5c(ccc6nc([C@@H]7C[C@@H]8COC[C@@H]8N7C(=O)[C@@H](NC(=O)OC)C(C)C)[nH]c65)c4)ccc3c2[nH]1)C(C)C [Compound 36]	10.54	10.40	8.10	9.70
COC(=O)N[C@H](C(=O)N1C[C@]2(CCCOC2)C[C@H]1c1ncc(-c2ccc(-c3ccc4c(c3)OCc3nc([C@@H]5CCCN5C(=O)[C@@H](NC(=O)OC)C(C)C)[nH]c3-4)cc2)[nH]1)C(C)C [Compound 30]	10.30	10.00	7.89	9.00
COC(=O)N[C@H](C(=O)N1C[C@]2(CCCOC2)C[C@H]1c1nc2ccc3cc(-c4ccc(-c5cnc([C@@H]6C[C@H]7C[C@H]7N6C(=O)[C@@H](NC(=O)OC)C(C)C)[nH]5)cc4)ccc3c2[nH]1)C(C)C [Compound 5]	11.10	10.30	8.70	10.00
COC(=O)N[C@H](C(=O)N1CCC[C@H]1c1ncc(-c2ccc(-c3ccc4c(ccc5nc([C@@H]6C[C@]7(CCOC7)CN6C(=O)[C@@H](NC(=O)OC)C(C)C)[nH]c54)c3)cc2)[nH]1)C(C)C [Compound 51]	10.96	9.70	8.40	9.40
COC(=O)N[C@H](C(=O)N1C[C@]2(CCCOC2)C[C@H]1c1nc2ccc3cc(-c4ccc(-c5cnc([C@@H]6C[C@@H]7C[C@@H]7N6C(=O)[C@@H](NC(=O)OC)C(C)C)[nH]5)cc4)ccc3c2[nH]1)C(C)C [Compound 22]	11.05	10.00	8.22	9.05
COC(=O)N[C@H](C(=O)N1C[C@@]2(CCCCO2)C[C@H]1c1nc(-c2ccc(-c3ccc4c(ccc5nc([C@@H]6CCCN6C(=O)[C@@H](NC(=O)OC)C(C)C)[nH]c54)c3)cc2)c[nH]1)C(C)C [Example 3]	9.84	8.30	8.22	7.36
COC(=O)N[C@H](C(=O)N1C[C@]2(CCCOC2)C[C@H]1c1ncc(-c2ccc3cc4cc(-c5cnc([C@@H]6C[C@@H]7CCCC[C@@H]7N6C(=O)[C@@H](NC(=O)OC)C(C)C)[nH]5)ccc4cc3c2)[nH]1)C(C)C [Compound 13]	10.44	11.00	8.05	9.10
COC(=O)N[C@H](C(=O)N1C[C@]2(CCCOC2)C[C@H]1c1ncc(-c2ccc(-c3ccc4c(ccc5nc([C@@H]6C[C@@H]7CCCC[C@@H]7N6C(=O)[C@@H](NC(=O)OC)C(C)C)[nH]c54)c3)cc2)[nH]1)C(C)C [Compound 29]	11.22	11.00	8.15	10.00
COC(=O)N[C@H](C(=O)N1CCC[C@H]1c1ncc(-c2ccc(-c3ccc4c(c3)OCc3nc([C@@H]5C[C@@]6(CCCOC6)CN5C(=O)[C@@H](NC(=O)OC)C(C)C)[nH]c3-4)cc2)[nH]1)C(C)C [Compound 33]	10.57	9.70	8.40	9.52
COC(=O)N[C@H](C(=O)N1C[C@]2(CCCOC2)C[C@H]1c1ncc(-c2ccc(-c3ccc4c(ccc5nc([C@@H]6C[C@@H]7C[C@@H]7N6C(=O)[C@@H](NC(=O)OC)C(C)C)[nH]c54)c3)cc2)[nH]1)C(C)C [Compound 20]	10.85	9.70	7.74	8.15
